# According to patent publication US10988459B2 (priority 2015, dated 2021):
# Molecular target: human RIP1 kinase domain (2-375) (Homo sapiens (Human), UniProt Q13546)
# Assay: biochemical
# Assay type: biochemical
# Details: Table 5; apparent Ki (Morrison tight-binding fit); 50 nM RIP1 kinase domain, 50 uM ATP, 2 hours incubation; read-out: Ki
# Procedure, shortened: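 50 nM purified kinase domain from baculovirus-infected insect cells, incubated 2 h with compound in 50 mM Hepes pH 7.5, 30 mM MgCl2, 1 mM DTT, 50 uM ATP, 0.002% Brij-35, 0.5% DMSO. ADP formation read by Transcreener FP at 633 nm excitation. Ki^app fitted with the Morrison tight-binding equation.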
# Chain of human RIP1 kinase domain (2-375) (Q13546 2-375): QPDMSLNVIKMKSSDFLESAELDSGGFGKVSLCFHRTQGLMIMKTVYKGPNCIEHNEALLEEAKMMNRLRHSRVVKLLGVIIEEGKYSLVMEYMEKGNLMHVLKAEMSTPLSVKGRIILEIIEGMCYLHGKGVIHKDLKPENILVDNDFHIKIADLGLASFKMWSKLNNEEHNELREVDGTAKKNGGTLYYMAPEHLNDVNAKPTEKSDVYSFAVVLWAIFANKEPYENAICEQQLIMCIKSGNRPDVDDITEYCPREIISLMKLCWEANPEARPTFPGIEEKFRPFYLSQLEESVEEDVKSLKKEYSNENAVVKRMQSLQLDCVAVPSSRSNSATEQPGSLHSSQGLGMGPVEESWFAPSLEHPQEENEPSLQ
row,Ki,SMILES
1,27 nM,"CCn1cc(-c2cc3n(n2)CCC(NC(=O)c2ncn(Cc4ccccc4)n2)C(=O)N3C)cn1 (single isomer, unassigned) [Example 698, 1-benzyl-N-[2-(1-ethylpyrazol-4-yl)-4-methyl-5-oxo-7,8-dihydro-6H-pyrazolo[1,5-a][1,3]diazepin-6-yl]-1,2,4-triazole-3-carboxamide]"
2,5 nM,"CC(C)[C@@H]1CCCc2nc(C(=O)N[C@H]3COc4cc(F)cc(F)c4NC3=O)nn21 (single isomer, unassigned) [Example 715]"
3,3 nM,"CCC[C@@H]1CCCc2nc(C(=O)N[C@H]3COc4cc(F)cc(F)c4NC3=O)nn21 (single isomer, unassigned) [Example 716]"
4,207 nM,"CC(C)[C@H]1CCCc2nc(C(=O)N[C@H]3COc4cc(F)cc(F)c4NC3=O)nn21 (single isomer, unassigned) [Example 717]"
5,214 nM,"CN1C(=O)C(NC(=O)c2ncn(Cc3ccccc3)n2)CCn2nc(CN3CCC(F)(F)C3)cc21 (single isomer, unassigned) [Example 719, 1-benzyl-N-[2-[(3,3-difluoropyrrplidin-1-yl)methyl]-4-methyl-5-oxo-7,8-dihydro-6H-pyrazolo[1,5-a][1,3]diazepin-6-yl]-1,2,4-triazole-3-carboxamide]"
6,155 nM,"CN1C(=O)[C@@H](NC(=O)c2ncn(Cc3ccccc3)n2)CCn2nc(CN3CCOCC3)cc21 (single isomer, unassigned) [Example 720]"
7,355 nM,"CN1C(=O)C(NC(=O)c2ncn(Cc3ccccc3)n2)CCn2nc(CN3CC(F)C3)cc21 (single isomer, unassigned) [Example 721, 1-benzyl-N-[2-[(3-fluoroazetidin-1-yl)methyl]-4-methyl-5-oxo-7,8-dihydro-6H-pyrazolo[1,5-a][1,3]diazepin-6-yl]-1,2,4-triazole-3-carboxamide]"
8,444 nM,"COC1CN(Cc2cc3n(n2)CCC(NC(=O)c2ncn(Cc4ccccc4)n2)C(=O)N3C)C1 (single isomer, unassigned) [Example 722, 1-benzyl-N-[2-[(3-methoxyazetidin-1-yl)methyl]-4-methyl-5-oxo-7,8-dihydro-6H-pyrazolo[1,5-a][1,3]diazepin-6-yl]-1,2,4-triazole-3-carboxamide]"
9,598 nM,"COCCNCc1cc2n(n1)CCC(NC(=O)c1ncn(Cc3ccccc3)n1)C(=O)N2C (single isomer, unassigned) [Example 724, 1-benzyl-N-[2-[(2-methoxyethylamino)methyl]-4-methyl-5-oxo-7,8-dihydro-6H-pyrazolo[1,5-a][1,3]diazepin-6-yl]-1,2,4-triazole-3-carboxamide]"

# Same assay, conditions: tight-binding apparent inhibition constant; human RIP1 kinase domain (2-375) 50 nM, 50 uM ATP, 2 hours; read-out: Ki
row,SMILES,Ki
1,"CCC[C@H]1CCCc2nc(C(=O)N[C@H]3CCc4cc(F)cc(F)c4NC3=O)nn21 (single isomer, unassigned) [Example 435]",25.2 nM
2,"CC(C)[C@@H]1CCCc2nc(C(=O)N[C@H]3CCc4cc(F)cc(F)c4NC3=O)nn21 (single isomer, unassigned) [Example 436]",20.3 nM
3,"CCC[C@@H]1CCCc2nc(C(=O)N[C@H]3CCc4cc(F)cc(F)c4NC3=O)nn21 (single isomer, unassigned) [Example 437]",8.43 nM
4,"Cc1cc(F)c2c(c1)OC[C@H](NC(=O)c1nc3n(n1)[C@@H](C(C)C)CCC3)C(=O)N2 (single isomer, unassigned) [Example 438]",150 nM
5,"CCC[C@H]1CCCc2nc(C(=O)N[C@H]3COc4cc(C)cc(F)c4NC3=O)nn21 (single isomer, unassigned) [Example 439]",6.62 nM
6,"Cc1cc(F)c2c(c1)OC[C@H](NC(=O)c1nc3n(n1)[C@H](C(C)C)CCC3)C(=O)N2 (single isomer, unassigned) [Example 440]",3.46 nM
7,"CCC[C@@H]1CCCc2nc(C(=O)N[C@H]3COc4cc(C)cc(F)c4NC3=O)nn21 (single isomer, unassigned) [Example 441]",9.29 nM
8,"CC(C)[C@@H]1CCCc2nc(C(=O)N[C@H]3COc4cc(F)cc(F)c4NC3=O)nn21 (single isomer, unassigned) [Example 444]",4.67 nM
9,"CCC[C@@H]1CCCc2nc(C(=O)N[C@H]3COc4cc(F)cc(F)c4NC3=O)nn21 (single isomer, unassigned) [Example 445]",3.47 nM
10,"CCC[C@H]1CCCc2nc(C(=O)N[C@H]3COc4cc(F)cc(F)c4NC3=O)nn21 (single isomer, unassigned) [Example 446]",7.06 nM
11,"CC(C)[C@H]1CCCc2nc(C(=O)N[C@H]3COc4cc(F)cc(F)c4NC3=O)nn21 (single isomer, unassigned) [Example 447]",207 nM
12,"CN1C(=O)C(NC(=O)c2ncn(Cc3ccccc3)n2)CCn2nc(CN3CCC(F)(F)C3)cc21 (single isomer, unassigned) [Example 448, 1-benzyl-N-(2-((3,3-difluoropyrrolidin-1-yl)methyl)-4-methyl-5-oxo-5,6,7,8-tetrahydro-4H-pyrazolo[1,5-a][1,3]diazepin-6-yl)-1H-1,2,4-triazole-3-carboxamide]",214 nM
13,"CN1C(=O)[C@@H](NC(=O)c2ncn(Cc3ccccc3)n2)CCn2nc(CN3CCOCC3)cc21 (single isomer, unassigned) [Example 449]",115 nM
14,"CN1C(=O)C(NC(=O)c2ncn(Cc3ccccc3)n2)CCn2nc(CN3CC(F)C3)cc21 (single isomer, unassigned) [Example 450, 1-benzyl-N-(2-((3-fluoroazetidin-1-yl)methyl)-4-methyl-5-oxo-5,6,7,8-tetrahydro-4H-pyrazolo[1,5-a][1,3]diazepin-6-yl)-1H-1,2,4-triazole-3-carboxamide]",355 nM
15,"COC1CN(Cc2cc3n(n2)CCC(NC(=O)c2ncn(Cc4ccccc4)n2)C(=O)N3C)C1 (single isomer, unassigned) [Example 451, 1-benzyl-N-(2-((3-methoxyazetidin-1-yl)methyl)-4-methyl-5-oxo-5,6,7,8-tetrahydro-4H-pyrazolo[1,5-a][1,3]diazepin-6-yl)-1H-1,2,4-triazole-3-carboxamide]",444 nM
16,"Cc1cc2n(n1)CC[C@H](NC(=O)c1nc3n(n1)[C@H](c1ccccc1)CC3)C(=O)N2C (single isomer, unassigned) [Example 610]",920 nM
17,"O=C(N[C@H]1CCc2cc(F)cc(F)c2NC1=O)c1nc2n(n1)[C@H](c1ccccc1)CC2 (single isomer, unassigned) [Example 612]",71 nM
18,"CN1C(=O)[C@@H](NC(=O)c2nc3n(n2)[C@H](c2ccccc2)CC3)COc2ccccc21 (single isomer, unassigned) [Example 613]",71 nM
19,"CN1C(=O)[C@@H](NC(=O)c2nc3n(n2)[C@H](c2ccccc2)CC3)CCn2nccc21 (single isomer, unassigned) [Example 614]",790 nM
20,"CN1C(=O)[C@@H](NC(=O)c2nc3n(n2)[C@@H](c2ccccc2)CC3)CCn2nccc21 (single isomer, unassigned) [Example 624]",20 nM
21,"O=C(N[C@H]1CCc2cc(F)cc(F)c2NC1=O)c1nc2n(n1)CC[C@@H]2c1ccccc1 (single isomer, unassigned) [Example 627]",160 nM

# The remaining lines, values ahead:
row,Ki,SMILES
1,5 nM,"O=C(N[C@H]1CCc2cc(F)cc(F)c2NC1=O)c1nc2n(n1)CC[C@H]2c1ccccc1 (single isomer, unassigned) [Example 628]"
2,8200 nM,"CN1C(=O)[C@H](NC(=O)c2ncn(Cc3ccc(Cl)cc3)n2)CCn2nc(C3CC3)cc21 (single isomer, unassigned) [Example 671]"
